Results: patent US5276023A, “19-nor-steroid esters” (Roussel Uclaf, priority 1989, dated 1994)

What was measured:
Glucocorticoid receptor = target: T1, Glucocorticoid receptor (Rattus norvegicus, UniProt P06536); assay: relative bond affinity for the glucocorticoid receptor of rat's thymus; type: binding; conditions: tritiated dexamethasone 2.5 nM, RBA=100 (CH)/(CX), reference cold dexamethasone; for relative bond affinity (RBA), Glucocorticoid 4H: 4 hours incubation at 0° C.; for relative bond affinity (RBA), Glucocorticoid 24H: 24 hours incubation at 0° C.
T1 construct: The thymuses were removed and homogenized; from tissue; host or cells: thymus cytosol (105,000 g supernatant) of suprarenalectomized male rats
T1 sequence (P06536 1-795): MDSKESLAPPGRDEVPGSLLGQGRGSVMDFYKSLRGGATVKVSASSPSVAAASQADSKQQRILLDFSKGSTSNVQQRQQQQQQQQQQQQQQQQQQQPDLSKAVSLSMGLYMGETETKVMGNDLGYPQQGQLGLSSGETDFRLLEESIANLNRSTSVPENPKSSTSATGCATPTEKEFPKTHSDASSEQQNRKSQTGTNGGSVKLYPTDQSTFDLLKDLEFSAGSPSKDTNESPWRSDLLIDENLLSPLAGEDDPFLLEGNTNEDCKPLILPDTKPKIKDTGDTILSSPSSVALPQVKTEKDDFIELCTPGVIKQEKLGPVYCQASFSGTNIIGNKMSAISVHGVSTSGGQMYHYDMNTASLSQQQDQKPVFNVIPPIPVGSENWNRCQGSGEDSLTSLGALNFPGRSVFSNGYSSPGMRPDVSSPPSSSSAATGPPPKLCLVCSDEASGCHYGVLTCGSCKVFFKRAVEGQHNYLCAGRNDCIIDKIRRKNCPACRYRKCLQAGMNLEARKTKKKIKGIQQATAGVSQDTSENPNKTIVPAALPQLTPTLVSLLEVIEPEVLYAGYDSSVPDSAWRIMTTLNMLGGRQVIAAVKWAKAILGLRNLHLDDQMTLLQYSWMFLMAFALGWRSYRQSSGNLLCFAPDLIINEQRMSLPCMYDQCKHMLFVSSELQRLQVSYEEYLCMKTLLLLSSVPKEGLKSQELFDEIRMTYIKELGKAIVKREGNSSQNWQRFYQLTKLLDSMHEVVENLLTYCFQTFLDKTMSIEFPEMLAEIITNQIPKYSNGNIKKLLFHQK
Method: 1) Measurement of the relative bond affinity for the receptors of steroid hormones:
Glucocorticoid receptor of rat's thymus:
Male rats weighing 160 to 200 g were suprarenalectomized and 4 to 8 days after this removal, the animals were killed. The thymuses were removed and homogenized at 0° C. using a Potter teflon-flask in a (TSD) 10 Mm Tris, 0.25M saccharose, 2 mM dithiothreitol, HCl pH 7.4 buffer (1 g of tissue per 10 ml of TSD). The homogenate was then ultracentrifuged at 105,000 g×90 mn at 0° C. Aliquots of the supernatant "cytosol", were incubated at 0° C. for 4 hours and 24 hours with a constant concentration (T=2.5 nM) of tritiated dexamethasone in the presence of increasing concentrations (0-2,500 nM) of cold dexamethasone or of the cold product under test. The concentration of the bonded tritiated dexamethasone (B) was then measured in each incubate by the technique of adsorption with carbon-dextran.
Calculation of the relative bond affinity:
The calculation of the relative bond affinity (RBA) was identical for all receptors. The following two curves were drawn: the percentage of bonded tritiated hormone B/T as a function of the logarithm of the concentration of the cold reference hormone and B/T as a function of the logarithm of the concentration of the cold product under test. The straight line of the equation:
B max=Percentage of bonded tritiated hormone for an incubation of this tritiated hormone at the concentration (T).
B min=Percentage of bonded tritiated hormone for an incubation of this tritiated hormone at the concentration (T) in the presence of a great excess of cold hormone (2500×10^-9 M).
The intersections of the straight line I50 and the curves allowed the evaluation of the concentrations of the cold reference hormone (CH) and of the cold product under test (CX) which inhibited by 50% the bonding of the tritiated hormone on the receptor. The relative bond affinity (RBA) of the product under test was determined by the equation RBA=100 (CH)/(CX)

rat thymocytes = assay: anti-glucocorticoid activity vis-a-vis dexamethasone: incorporation of uridine in rat thymocytes; type: cell-based; conditions: for inhibition at 1 µM / inhibition at 0.1 µM / inhibition at 0.01 µM: Rattus norvegicus, Thymocyte, 3 h; for inhibition at 1 µM / inhibition at 0.1 µM / inhibition at 0.01 µM / % of inhibition of the incorporation of uridine: with 5×10^-8 M dexamethasone, 3 hours at 37° C.; for antiglucocorticoid activity: conclusion in words from the thymocyte study
Excerpt: 2) Anti-glucocorticoid activity vis-a-vis dexamethasone
Incorporation of uridine in rat thymocytes
Glucocorticoids cause an inhibition of the incorporation of nucleosides in lymphoid tissue and the measurement of the incorporation of radio-active uridine in the thymocytes in the presence of a product under test allow its glucocorticoid activity to be evaluated.
It was in accordance with the technique described by Dausse et al (3). The thymus of a suprarenalectomized rat weighing 160 to 180 g was removed, shredded and homogenized slowly using a teflon-flask homogenizer in Hanks solution. The cellular suspension obtained was filtered on gauze and then centrifuged at 800 g×10 mn. A new centrifugation was then carried out at 800 g×10 mn. The deposit was suspended in a nutritive medium (M.E.M. Gibco) and the cellular concentration was adjusted to approximately 20×10^6 cells per ml. Aliquots of 250 ul were then incubated under carbogen for 3 hours at 37° C. with 5×10^-8 M of dexamethasone in the presence or not of increasing concentrations of product (10^-8 M to 10^-6 M). 0.1 uCi of tritiated uridine was then added to each incubate and the incubation was continued for one hour. The incubates were then cooled and 1 ml of a cold solution of trichloracetic acid (TCA) at 5 % weight/volume was added. The precipitates were collected on Whatman GF/C filters and were washed with 4×2 ml of 5% iced TCA. The radioactivity retained on the filters (representing the tritiated uridine incorporated in the thymocytes) was measured using a liquid scintillation spectrometer.

relative bond affinity (RBA), Glucocorticoid 4H (Glucocorticoid receptor) | relative bond affinity (RBA), Glucocorticoid 24H (Glucocorticoid receptor) | relative bond affinity (RBA), Glucocorticoid 4H (Glucocorticoid receptor; listed as EX. 5) | relative bond affinity (RBA), Glucocorticoid 24H (Glucocorticoid receptor; listed as EX. 5) | relative bond affinity (RBA), Glucocorticoid 4H (Glucocorticoid receptor; listed as EX. 6) | relative bond affinity (RBA), Glucocorticoid 24H (Glucocorticoid receptor; listed as EX. 6) | SMILES | inhibition at 1 µM (rat thymocytes; product at 10^-6 M) [%] | inhibition at 0.1 µM (rat thymocytes; product at 10^-7 M) [%] | inhibition at 0.01 µM (rat thymocytes; product at 10^-8 M) [%] | antiglucocorticoid activity (rat thymocytes) | % of inhibition of the incorporation of uridine (rat thymocytes; product at 10^-6 M) [%] | % of inhibition of the incorporation of uridine (rat thymocytes; product at 10^-7 M) [%] | % of inhibition of the incorporation of uridine (rat thymocytes; product at 10^-8 M) [%]
62 | 48 | – | – | – | – | CN(C)c1ccc([C@H]2C[C@@]3(C)[C@@H](CC[C@@]3(O)/C=C\COC(=O)CCC(=O)O)[C@@H]3CCC4=CC(=O)CCC4=C32)cc1 [Example 2, Sodium (Z)-3-[11β-[4-dimethylamino-phenyl]-Δ^4,9-estradien-17β-ol-3-one-17α-yl]-2-propenyl succinate] | 68 | 1 | 0 | – | – | – | –
31,5 | 27 | – | – | – | – | CN(C)c1ccc([C@H]2C[C@@]3(C)[C@@H](CC[C@@]3(O)C#CCOC(=O)CCC(=O)O)[C@@H]3CCC4=CC(=O)CCC4=C32)cc1 [Example 4, Sodium and 3-[11β-[4-dimethylamino-phenyl]-Δ^4,9-estradien-17β-ol-3-one-17α-yl]-2-propynyl succinate] | 22 | 2.5 | 0 | – | – | – | –
– | – | 28 | 77 | – | – | CC#C[C@]1(OC(=O)CCC(=O)O)CC[C@H]2[C@@H]3CCC4=CC(=O)CCC4=C3[C@@H](c3ccc(N(C)C)cc3)C[C@@]21C [Example 5, 11β-[4-dimethylamino-phenyl]-17-(1-propynyl)-Δ^4,9-estradien-3-one-17β-yl acid succinate] | – | – | – | good | 135 | 100 | 28
– | – | – | – | 26 | 54 | CC#C[C@]1(OC(=O)CCC(=O)O)CC[C@H]2[C@@H]3CCC4=CC(=O)CCC4=C3[C@@H](c3ccc(N(C)C)cc3)C[C@@]21C [Example 6, Sodium 11β-[4-dimethylamino-phenyl]17α-(1-propynyl)-Δ^4,9 - estradien-3-one-17β-yl succinate] | – | – | – | – | 78 | 27 | 0
37 | 77 | – | – | – | – | CN(C)c1ccc([C@H]2C[C@@]3(C)[C@@H](CC[C@]3(C#CCl)OC(=O)CCC(=O)O)[C@@H]3CCC4=CC(=O)CCC4=C32)cc1 [Example 10, Sodium and 21-chloro-11β-[4-dimethylamino-phenyl]-19-nor-17α-Δ^4,9-pregnadien-3-one-20-yn-17β-yl succinate] | 78 | 19 | 0 | – | – | – | –
9,5 | 24 | – | – | – | – | CC#C[C@]1(OC(=O)CCC(=O)O)CC[C@H]2[C@@H]3CCC4=CC(=O)CCC4=C3[C@@H](c3ccc(SC)cc3)C[C@@]21C [Example 12, Sodium and 11β-[4-methylthio-phenyl]-17α-(1-propynyl)-Δ^4,9 estradien-3-one-17β-yl succinate] | 104 | 62 | 8 | good | – | – | –
